How the values were obtained:
[1] = target: high affinity phorbol-ester binding sites (PKC); conditions: read-out: affinity constant (Kd) of phorbol ester binding; control cell line R6-C1; intact cells; Scatchard; approximately the same in both cell lines
Procedure: Cells were plated at 1×10^5 per 4 cm well on day 1, the medium was changed on day 2 and the cells then assayed on day 3. […] The plates were washed 3× with 4 ml ice-cold PBS. The cells were solubilized in 1 ml 1% SDS/10 mM DTT for 2 hrs at 37° C. The lysate was transferred to a scintillation vial and counted.

[2] = system: R6-PKC5 cells (Rat 6 fibroblasts overproducing PKCbeta1); experiment: Growth in soft agar (anchorage independence), R6-PKC5; type: cell-based
Procedure: (§1) Cells were seeded at a density of 10^4/plate in a series of 60 mm plates, in 5 ml DMEM plus 10% CS. Twenty-four hours later, cells in triplicate plates were trypsinized and counted. This point was designated “day 0.” The remaining cultures were then grown in the respective medium (i.e. plus or minus 100 ng/ml TPA) with fresh medium changes twice per week. Cell counts per plate were then determined on triplicate plates during the remainder of the growth curve (FIG. 3). The results obtained were analyzed for exponential doubling time and saturation density (Table 2). To assess growth in soft agar (anchorage independence), 2×10^4 cells were suspended in 2 ml of 0.3% Bacto agar (Difco Laboratories, Detroit, Mich.) in DMEM containing 20% fetal calf serum (FCS) and overlayed above a layer of 5 ml of 0.5% agar in the same medium, on 60 mm petri dishes. The cells were then overlaid with DMEM plus 20% FCS every 4 days. At the end of 30 days, colonies were stained with the vital stain 2-(p-iodophenyl)-3-(p-nitrophenyl)-5-phenyltetrazolinium chloride hydrate (INT) (Sigma Chemical Co., St. Louis, Mo.) for 48 hours at 37° C., in an incubator with 5% CO2 (Schaeffer and Friend, 1976), and the number of colonies counted under low power on an inverted phase microscope. The data are expressed as “cloning efficiency”, i.e. number of colonies greater than 0.05 mm per plate X 100 divided by the number of cells originally seeded per plate.
(§2) I also assayed these cell lines for their ability to form colonies in soft agar, since with rodent cells the acquisition of anchorage-independent growth often correlates with tumorigenicity (Freedman and Shin, 1974).

[3] = system: R6-PKC3 cells (Rat 6 fibroblasts overproducing PKCbeta1); experiment: Growth in soft agar (anchorage independence), R6-PKC3; type: cell-based
Procedure: as §1, §2

[4] = system: cell lines overproducing PKC; experiment: Growth in agar of cell lines overproducing PKC (further screening of activators and inhibitors); type: cell-based, rat
Procedure: as §1
Additional compounds tested included the tumor promoters teleocidin, aplysiatoxin, and mezerein, all of which are known activators of PKC (O'Brian, et al., CSH, 1985).
Inhibition of the growth of the R6-PKC3 cells in agar in the presence of tamoxifen provided critical evidence that tamoxifen could inhibit PKC-mediated stimulation of cellular growth.

R6-PKC5 cells [5] = experiment: Growth in monolayer culture, R6-PKC5; type: cell-based, rat; conditions: R6-PKC5 (test), + TPA 100 ng/ml
Procedure: (§3) Cells were seeded at a density of 10^4/plate in a series of 60 mm plates, in 5 ml DMEM plus 10% CS. Twenty-four hours later, cells in triplicate plates were trypsinized and counted. This point was designated “day 0.” The remaining cultures were then grown in the respective medium (i.e. plus or minus 100 ng/ml TPA) with fresh medium changes twice per week. Cell counts per plate were then determined on triplicate plates during the remainder of the growth curve (FIG. 3). The results obtained were analyzed for exponential doubling time and saturation density (Table 2). To assess growth in soft agar (anchorage independence), 2×10^4 cells were suspended in 2 ml of 0.3% Bacto agar (Difco Laboratories, Detroit, Mich.) in DMEM containing 20% fetal calf serum (FCS) and overlayed above a layer of 5 ml of 0.5% agar in the same medium, on 60 mm petri dishes. […] At the end of 30 days, colonies were stained with the vital stain 2-(p-iodophenyl)-3-(p-nitrophenyl)-5-phenyltetrazolinium chloride hydrate (INT) (Sigma Chemical Co., St. Louis, Mo.) for 48 hours at 37° C., in an incubator with 5% CO2 (Schaeffer and Friend, 1976), and the number of colonies counted under low power on an inverted phase microscope. The data are expressed as “cloning efficiency”, i.e. number of colonies greater than 0.05 mm per plate X 100 divided by the number of cells originally seeded per plate. […]

R6-PKC3 cells [6] = experiment: Growth in monolayer culture, R6-PKC3; type: cell-based, rat
Procedure: as §1
It was also of interest to determine the growth rates of these cells in monolayer culture. Detailed growth curves were performed on R6-C1, R6-PKC3 and R6-PKC5 cells in 10% calf serum and DMEM medium, in the absence and presence of 100 ng/ml TPA.

R6-C1 control cells [7] = experiment: Growth in monolayer culture, control R6-C1; type: cell-based, rat; conditions: R6C1 (control), + TPA 100 ng/ml
Procedure: as §3

R6-PKC3 cells [8] = experiment: Morphologic response to phorbol ester treatment, R6-PKC3; type: cell-based, rat
Procedure: (§4) FIG. 4. Morphologic Responses of the Cell Lines to Phorbol Ester Treatment. Nearly confluent cultures of the three indicated cell lines were exposed to 100 ng/ml TPA in 0.1% dimethylsulfoxide (DMSO) solvent (“+TPA”) or 0.1% DMSO alone (“−TPA”), in DMEM plus 10% CS. Photographs were taken 24 hours later (Panels A and D) and 48 hours later (Panels B and E). Fresh medium plus or minus TPA was then added and photographs were then taken an additional 24 hours later (Panels C and F). (Magnification: 100×).
(§5) All of the cell lines were then exposed to a second, fresh dose of TPA (100 ng/ml) and examined 24 hours later (FIG. 4, Panel F), i.e., 72 hours after the first dose of TPA.

R6-C1 control cells [9] = experiment: Morphologic response to phorbol ester treatment, control R6-C1; type: cell-based, rat
Procedure: as §4, §5

R6-PKC5 cells [10] = experiment: Morphologic response to phorbol ester treatment, R6-PKC5; type: cell-based, rat
Procedure: as §4, §5

[11] = system: R6-C1 control cells (Rat 6 fibroblasts with pMV7 alone); experiment: Growth in soft agar (anchorage independence), control R6-C1; type: cell-based
Procedure: as §3

[12] = system: FDC-P1 cells overproducing PKC beta1; experiment: Morphologic response of FDC-P1 cells overproducing PKCbeta1 to PKC activators; type: cell-based; conditions: 100 nM TPA, after 12 hours
Procedure: Several cell lines were plated at 3×10E4 cells/ml and treated with 100 nM TPA. After 12 hours, representative fields were photographed. […] The latter clumps are easily visualized with standard cell stains such as Giemsa, and stain much darker than the corresponding control cells under these conditions.

PKC = conditions: cell-free assay (O'Brian, et al, Cancer Res., 1985); cited from earlier work
[13] = initial exponential phase, DMEM plus 10% CS
[14] = R6-PKC5 (test), + TPA 100 ng/ml, 0.3% agar
[15] = R6-PKC3 (test), + TPA 100 ng/ml, 0.3% agar
[16] = 24 hours after second 100 ng/ml dose (72 hours after first)

CCCC(=O)O[C@@H]1[C@@H](C)[C@@]2(O)[C@@H](C=C(CO)C[C@]3(O)C(=O)C(C)=C[C@@H]23)[C@@H]2C(C)(C)[C@]12OC(=O)CCC [3H-PDBu]
Kd [1]: 0.016 µM

CC1CNCCN1S(=O)(=O)c1cccc2cnccc12 (stereo not shown) [H-7, 1-(5-Isoquinolinesulfonyl)-2-methyl-piperazine]
Effic. of Growth In Agar (%) ([2]; R6-PKC5, inhibitor 2 μM): 21% | Effic. of Growth In Agar (%) ([2]; R6-PKC5, inhibitor 5 μM): 16% | Effic. of Growth In Agar (%) ([2]; R6-PKC5, inhibitor 10 μM): 4% | Effic. of Growth In Agar (%) ([2]; R6-PKC5, inhibitor 50 μM): 1% | Effic. of Growth In Agar (%) ([2]; R6-PKC5, inhibitor 100 μM): 0% | Effic. of Growth In Agar (%) ([3]; R6-PKC3, inhibitor 2 μM): 25% | Effic. of Growth In Agar (%) ([3]; R6-PKC3, inhibitor 5 μM): 22% | Effic. of Growth In Agar (%) ([3]; R6-PKC3, inhibitor 10 μM): 17% | Effic. of Growth In Agar (%) ([3]; R6-PKC3, inhibitor 50 μM): 4% | Effic. of Growth In Agar (%) ([3]; R6-PKC3, inhibitor 100 μM): 0% | modulation of the growth of the cells ([4]; PKC-overproducing cell lines, known activators or inhibitor of PKC): modulated the growth of the cells in the expected manner

CCCCCCCCCCCCCC(=O)O[C@@H]1[C@@H](C)[C@@]2(O)[C@@H](C=C(CO)C[C@]3(O)C(=O)C(C)=C[C@@H]23)[C@@H]2C(C)(C)[C@]12OC(C)=O [TPA, 12-O-tetradecanoylphorbol-13-acetate]
Monolayer Saturat. Density (R6-PKC5 cells [5]; cells per 6 cm plate on day 11): 7.0 × 10^6 | Monolayer Doubling Time (R6-PKC5 cells [5]; [13]): 22.9 h | Monolayer Saturat. Density (R6-PKC3 cells [6]; R6-PKC3 (test), + TPA 100 ng/ml, cells per 6 cm plate on day 11): 10.0 × 10^6 | Monolayer Doubling Time (R6-PKC3 cells [6]; R6-PKC3 (test), + TPA 100 ng/ml, initial exponential phase, DMEM plus 10% CS): 21.5 h | cell density when maintained in TPA for a longer period (R6-PKC3 cells [6]; R6-PKC3, monolayer, longer period in presence of TPA, cells detach from plate): showed a decline in cell density | Monolayer Saturat. Density (R6-C1 control cells [7]; cells per 6 cm plate on day 11): 4.2 × 10^6 | Monolayer Doubling Time (R6-C1 control cells [7]; [13]): 24.6 h | Agar Colony Size [2, 14]: 0.10-0.15 mm | Agar Effic. [2, 14]: 34.7% | colony sizes and cloning efficiencies in agar ([2]; R6-PKC5, TPA 100 ng/ml in agar medium): enhanced | Agar Colony Size [3, 15]: 0.15-0.35 mm | Agar Effic. [3, 15]: 29.7% | colony sizes and cloning efficiencies in agar ([3]; R6-PKC3, TPA 100 ng/ml in agar medium): enhanced | morphology after TPA (R6-PKC3 cells [8]; 24 hours after 100 ng/ml TPA): very long cytoplasmic processes and numerous refractile cell bodies | morphologic response to second dose of TPA (R6-PKC3 cells [8]; [16]): continued to display their altered morphology as well as an increase in cell density | morphology after TPA (R6-PKC3 cells [8]; 48 hours after 100 ng/ml TPA): continued to display an altered morphology | morphology after TPA (R6-C1 control cells [9]; 24 hours after 100 ng/ml TPA): more elongated and dendritic cells and a criss-cross pattern | morphologic response to second dose of TPA (R6-C1 control cells [9]; [16]): failed to respond | morphology after TPA (R6-C1 control cells [9]; 48 hours after 100 ng/ml TPA): returned to its normal appearance | morphologic changes after TPA compared with control (R6-PKC5 cells [10]; 24 hours after 100 ng/ml TPA): much more dramatic | morphologic response to second dose of TPA (R6-PKC5 cells [10]; [16]): only slight changes in morphology | morphology after TPA (R6-PKC5 cells [10]; 48 hours after 100 ng/ml TPA, to a lesser extent than R6-PKC3): continued to display an altered morphology | growth in agar ([11]; R6-C1, TPA 100 ng/ml in agar medium): still failed to grow in agar | Agar Effic. ([11]; R6C1 (control), + TPA 100 ng/ml, 0.3% agar): 0% | morphologic changes [12]: profound morphologic changes

CC/C(=C(\c1ccccc1)c1ccc(OCCN(C)C)cc1)c1ccccc1 [Tamoxifen, tamoxifen]
effect on PKC enzyme activity (PKC): inhibits PKC enzyme activity | Effic. of Growth In Agar (%) ([2]; R6-PKC5, inhibitor 5 μM): 19% | Effic. of Growth In Agar (%) ([2]; R6-PKC5, inhibitor 20 μM): 17% | Effic. of Growth In Agar (%) ([2]; R6-PKC5, inhibitor 50 μM): 8% | Effic. of Growth In Agar (%) ([2]; R6-PKC5, inhibitor 100 μM): 0% | Effic. of Growth In Agar (%) ([2]; R6-PKC5, inhibitor 200 μM): 0% | Effic. of Growth In Agar (%) ([3]; R6-PKC3, inhibitor 5 μM): 27% | Effic. of Growth In Agar (%) ([3]; R6-PKC3, inhibitor 20 μM): 22% | Effic. of Growth In Agar (%) ([3]; R6-PKC3, inhibitor 50 μM): 15% | Effic. of Growth In Agar (%) ([3]; R6-PKC3, inhibitor 100 μM): 6% | Effic. of Growth In Agar (%) ([3]; R6-PKC3, inhibitor 200 μM): 0% | inhibition of growth in agar ([4]; all of the cell lines overproducing PKC): completely inhibiting the growth in agar

— patent publication US20060019329A1, “Method of screening for protein inhibitors and activators” (priority 1988, published 2006)
